# Source: US20100130737A1, “Regulating Agent of GPR34 Receptor Function” (TAKEDA PHARMACEUTICAL COMPANY LIMITED, priority 2005, published 2010)
row,Structure (SMILES),melting point
1,"O=C(Nc1ccc(F)cc1)NC1(C(=O)O)Cc2ccc(-c3ccc(Cl)cc3)cc2C1 (stereo not drawn) [Example B180, 5-(4-Chlorophenyl)-2-({[(4-fluorophenyl)amino]carbonyl}amino)indan-2-carboxylic acid]",177 °C
2,"O=C(Cc1cccc(OCc2ccccc2)c1)NC1(C(=O)O)Cc2ccc(-c3ccc(Cl)cc3)cc2C1 (stereo not drawn) [Example B181, 2-({[3-(Benzyloxy)phenyl]acetyl}amino)-5-(4-chlorophenyl)indan-2-carboxylic acid]",207 °C
3,"O=C(Cc1ccc(Oc2ccccc2)cc1)NC1(C(=O)O)Cc2ccc(-c3ccc(Cl)cc3)cc2C1 (stereo not drawn) [Example B183, 5-(4-Chlorophenyl)-2-{[(4-phenoxyphenyl)acetyl]amino)indan-2-carboxylic acid]",227 to 228 °C
4,"O=C(Cc1ccc(OCc2ccc(F)cc2)cc1)NC1(C(=O)O)Cc2ccc(-c3ccccc3Cl)cc2C1 (stereo not drawn) [Example B184, 5-(2-Chlorophenyl)-2-[({4-[(4-fluorobenzyl)oxy]phenyl}acetyl}amino}indan-2-carboxylic acid]",213 to 215 °C
5,"O=C(Cc1ccc(OCc2ccc(F)cc2)cc1)NC1(C(=O)O)Cc2ccc(-c3cccc(Cl)c3)cc2C1 (stereo not drawn) [Example B185, 5-(3-Chlorophenyl)-2-[({4-[(4-fluorobenzyl)oxy]phenyl}acetyl)amino]indan-2-carboxylic acid]",173 to 174 °C
6,"O=C(Cc1ccc(OCc2ccc(F)cc2)cc1)NC1(C(=O)O)Cc2ccc(-c3ccc(Cl)s3)cc2C1 (stereo not drawn) [Example B186, 5-(5-Chloro-2-thienyl)-2-[({4-[(4-fluorobenzyl)oxy]phenyl}acetyl)amino]indan-2-carboxylic acid]",214 to 216 °C
7,"CC(C)(C)OC(=O)c1cccc(COc2ccc(CC(=O)NC3(C(=O)O)Cc4ccc(-c5ccc(Cl)cc5)cc4C3)cc2)c1 (stereo not drawn) [Example B187, 2-{[(4-{[3-(tert-Butoxycarbonyl)benzyl]oxy}phenyl)acetyl]amino}-5-(4-chlorophenyl)indan-2-carboxylic acid]",177 to 179 °C
8,"O=C(Cc1ccc(OCc2cccc(C(=O)O)c2)cc1)NC1(C(=O)O)Cc2ccc(-c3ccc(Cl)cc3)cc2C1 (stereo not drawn) [Example B188, 2-[({4-[(3-Carboxybenzyl)oxy]phenyl}acetyl)amino]-5-(4-chlorophenyl)indan-2-carboxylic acid]",220 to 222 °C
9,"CC(C)(C)OC(=O)c1ccccc1COc1ccc(CC(=O)NC2(C(=O)O)Cc3ccc(-c4ccc(Cl)cc4)cc3C2)cc1 (stereo not drawn) [Example B189, 2-{[(4-{[2-(tert-Butoxycarbonyl)benzyl]oxy}phenyl)acetyl]amino}-5-(4-chlorophenyl)indan-2-carboxylic acid]",170 to 171 °C
10,"O=C(Cc1ccc(OCc2ccccc2C(=O)O)cc1)NC1(C(=O)O)Cc2ccc(-c3ccc(Cl)cc3)cc2C1 (stereo not drawn) [Example B190, 2-[({4-[(2-Carboxybenzyl)oxy]phenyl}acetyl)amino]-5-(4-chlorophenyl)indan-2-carboxylic acid]",209 to 211 °C
11,"O=C(Cc1ccc(OCc2ccc(F)cc2)cc1)NC1(c2nn[nH]n2)Cc2ccc(-c3ccc(Cl)cc3)cc2C1 (stereo not drawn) [Example B191, N-[5-(4-Chlorophenyl)-2-(2H-tetrazol-5-yl)-2,3-dihydro-1H-inden-2-yl]-2-{4-[(4-fluorobenzyl)oxy]phenyl}acetamide]",108 to 110 °C
12,"Nc1cccc(COc2ccc(CC(=O)NC3(C(=O)O)Cc4ccc(-c5ccc(Cl)cc5)cc4C3)cc2)c1 (stereo not drawn) [Example B192, 2-[({4-[(3-Aminobenzyl)oxy]phenyl}acetyl)amino]-5-(4-chlorophenyl)indan-2-carboxylic acid]",191 to 192 °C
13,"CS(=O)(=O)Nc1cccc(COc2ccc(CC(=O)NC3(C(=O)O)Cc4ccc(-c5ccc(Cl)cc5)cc4C3)cc2)c1 (stereo not drawn) [Example B193, 5-(4-Chlorophenyl)-2-({[4-({3-[(methylsulfonyl)amino]benzyl)oxy)phenyl]acetyl}amino)indan-2-carboxylic acid]",169 to 170 °C
14,"Nc1ccccc1COc1ccc(CC(=O)NC2(C(=O)O)Cc3ccc(-c4ccc(Cl)cc4)cc3C2)cc1 (stereo not drawn) [Example B194, 2-[({4-[(2-Aminobenzyl)oxy]phenyl}acetyl)amino]-5-(4-chlorophenyl)indan-2-carboxylic acid]",149 to 150 °C
15,"Cc1c(C(=O)NC2(C(=O)O)Cc3cccc(Br)c3C2)oc2cc(-c3ccc(Cl)cc3)ccc12 (stereo not drawn) [Example C113, 4-Bromo-2-({[6-(4-chlorophenyl)-3-methyl-1-benzofuran-2-yl]carbonyl}amino)indan-2-carboxylic acid]",230 °C
16,"Cc1c(C(=O)NC2(C(=O)O)Cc3ccc(Br)cc3C2)oc2cc(-c3ccc(Cl)cc3)ccc12 (stereo not drawn) [Example C114, 5-Bromo-2-({[6-(4-chlorophenyl)-3-methyl-1-benzofuran-2-yl]carbonyl}amino)indan-2-carboxylic acid]",227 °C
17,"Cc1c(C(=O)N[C@H](Cc2ccc(OCc3ccccc3)cc2)C(=O)O)oc2cc(-c3ccc(Cl)cc3)ccc12 [Example C116, O-Benzyl-N-{[6-(4-chlorophenyl)-3-methyl-1-benzofuran-2-yl]carbonyl}-D-tyrosine]",113 to 114 °C
18,"Cc1c(C(=O)N[C@@H](Cc2ccc(OCc3ccsc3)cc2)C(=O)O)oc2cc(-c3ccc(Cl)cc3)ccc12 [Example C118, N-{[6-(4-Chlorophenyl)-3-methyl-1-benzofuran-2-yl]carbonyl}-O-(3-thienylmethyl)-L-tyrosine]",111 to 113 °C
19,"Cc1c(C(=O)N[C@@H](Cc2ccc(OCc3ccoc3)cc2)C(=O)O)oc2cc(-c3ccc(Cl)cc3)ccc12 [Example C119, N-{[6-(4-Chlorophenyl)-3-methyl-1-benzofuran-2-yl]carbonyl}-O-(3-furylmethyl)-L-tyrosine]",108 to 110 °C
20,"O=C(N[C@@H](Cc1ccc(OCc2ccoc2)cc1)C(=O)O)c1cc2ccc(-c3ccc(Cl)cc3)cc2s1 [Example C124, N-{[6-(4-Chlorophenyl)-1-benzothiophene-2-yl]carbonyl}-O-(3-furylmethyl) tyrosine]",200 to 201 °C
21,"O=C(N[C@@H](Cc1ccc(OCc2ccoc2)cc1)C(=O)O)c1cc2cc(-c3ccc(Cl)cc3)ccc2s1 [Example C125, N-{[5-(4-Chlorophenyl)-1-benzothiophene-2-yl]carbonyl}-O-(3-furylmethyl) tyrosine]",172 to 173 °C
22,"O=C(N[C@@H](Cc1ccc(OCc2cccc(F)c2)cc1)C(=O)O)c1cc2cc(-c3ccc(Cl)cc3)ccc2s1 [Example C126, N-{[5-(4-Chlorophenyl)-1-benzothiophene-2-yl]carbonyl}-O-(3-fluorobenzyl) tyrosine]",184 to 185 °C
23,"Cc1cccc(COc2ccc(C[C@H](NC(=O)c3cc4cc(-c5ccc(Cl)cc5)ccc4s3)C(=O)O)cc2)c1 [Example C127, N-{[5-(4-Chlorophenyl)-1-benzothiophene-2-yl]carbonyl}-O-(3-methylbenzyl)tyrosine]",192 to 193 °C
24,"COc1cccc(COc2ccc(C[C@H](NC(=O)c3cc4cc(-c5ccc(Cl)cc5)ccc4s3)C(=O)O)cc2)c1 [Example C128, N-{[5-(4-Chlorophenyl)-1-benzothiophene-2-yl]carbonyl}-O-(3-methoxybenzyl)tyrosine]",175 to 177 °C
